A value given as a limit tells only on which side of the number the result lay.

For experiment [1], the system named is A549. Nature of the experiment: Cytotoxicity against human A549 cells after 48 hrs by MTT assay. In kind it is functional, cell-based. As to conditions: A549, 48 h. In general terms: Formazan colour is commonly taken as a measure of viable cells.
Experiment [2] relates to SW480. The experiment is described as follows: Cytotoxicity against human SW480 cells after 48 hrs by MTT assay. The format is functional, cell-based. As to conditions: SW480, 48 h.
The subject of experiment [3] is MCF7. Nature of the experiment: Cytotoxicity against human MCF7 cells after 48 hrs by MTT assay. The format is functional, cell-based. As to conditions: MCF7, 48 h.
Experiment [4] has as its system SMMC-7721. Nature of the experiment: Cytotoxicity against human SMMC7721 cells after 48 hrs by MTT assay. The format is functional, cell-based. Particulars: SMMC-7721, 48 h.
Experiment [5] deals with Human immunodeficiency virus 1. Nature of the experiment: Antiviral activity against HIV1 3B infected in human C8166 cells assessed as inhibition of viral-induced cytopathogenicity by syncytium formation assay. In kind it is functional, organism-based. Particulars: Human immunodeficiency virus 1, 3B.

`C/C(=C\CC[C@@H](C)[C@H]1CC[C@@]2(C)[C@@H]3CC[C@H]4C(C)(C)C(=O)CC[C@]4(C)C3=C[C@@H](O)[C@]12C)C(=O)O`: the IC50 in experiment [1], in experiment [2], in experiment [3] and in experiment [4] was more than 40 µM in each case. The EC50 – broadly, the concentration at which the effect is half-maximal – in experiment [5] worked out at 54.8 µM.

For `Cc1cn([C@H]2C[C@H](N=[N+]=[N-])[C@@H](CO)O2)c(=O)[nH]c1=O` [ZIDOVUDINE], in experiment [5], the EC50 came out at 0.02 µM.

For `CC1=C[C@]2(O)[C@@H](CC[C@H]3C(C)(C)C(=O)CC[C@@]32C)[C@@](C)(CCC(=O)[C@H](C)CC/C=C(\C)C(=O)O)C1=O`, the IC50 in experiment [1], in experiment [2], in experiment [3] and in experiment [4] was more than 40 µM in each case.

Turning to `C/C(=C\CC[C@@H](C)C(=O)CC[C@]1(C)C(=O)C=C2[C@H]1CC[C@H]1C(C)(C)C(=O)CC[C@]21C)C(=O)O`, the IC50 in experiment [1], in experiment [2], in experiment [3] and in experiment [4] was more than 40 µM each time. In addition, the EC50 in experiment [5] came to 30.3 µM.
